From article PMC6957519, “NLRP6 self-assembles into a linear molecular platform following LPS binding and ATP stimulation” (Scientific Reports, 2020)
Values joined by “and” are separate entries in the source; they are usually repeats but may differ in a detail not shown here. Equal values may be shown once.

T1: NLRP6 (Homo sapiens, UniProt P59044)
T1 construct: full-length 1-892; N-terminal His-MBP tag removed by HRV3C; E. coli BL21(DE3); monomer, dimerises with LPS
T1 sequence (P59044 1-892): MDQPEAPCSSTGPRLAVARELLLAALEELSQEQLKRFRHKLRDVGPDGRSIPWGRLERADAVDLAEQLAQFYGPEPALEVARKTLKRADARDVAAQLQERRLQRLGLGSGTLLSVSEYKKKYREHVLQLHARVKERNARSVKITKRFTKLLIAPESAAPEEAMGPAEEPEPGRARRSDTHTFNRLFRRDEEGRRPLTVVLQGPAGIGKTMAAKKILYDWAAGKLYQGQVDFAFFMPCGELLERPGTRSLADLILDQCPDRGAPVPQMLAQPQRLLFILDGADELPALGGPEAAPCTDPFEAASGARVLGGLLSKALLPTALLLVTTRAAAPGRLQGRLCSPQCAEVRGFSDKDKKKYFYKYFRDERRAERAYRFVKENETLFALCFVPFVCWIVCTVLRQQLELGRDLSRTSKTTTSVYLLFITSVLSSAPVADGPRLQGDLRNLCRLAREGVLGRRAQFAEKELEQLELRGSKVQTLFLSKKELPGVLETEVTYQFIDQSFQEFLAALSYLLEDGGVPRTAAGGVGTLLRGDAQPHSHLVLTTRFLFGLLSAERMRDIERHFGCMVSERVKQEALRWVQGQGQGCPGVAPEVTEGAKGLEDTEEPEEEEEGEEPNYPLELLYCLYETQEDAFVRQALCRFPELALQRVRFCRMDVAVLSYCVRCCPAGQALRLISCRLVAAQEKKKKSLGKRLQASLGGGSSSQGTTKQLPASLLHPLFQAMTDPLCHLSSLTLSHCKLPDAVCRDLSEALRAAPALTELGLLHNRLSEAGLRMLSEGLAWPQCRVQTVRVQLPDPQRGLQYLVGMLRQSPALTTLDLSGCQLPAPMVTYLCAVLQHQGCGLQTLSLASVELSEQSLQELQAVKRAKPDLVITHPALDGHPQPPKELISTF


Legend:
NLRP6 [1] = target: T1, NLRP6; assay: gel filtration and EM, nucleotide-induced oligomerization; type: binding; conditions: with LPS (LPS-bound dimer); no shift of the monomer with ATP alone; putative NOD domain site
NLRP6 [2] = target: T1, NLRP6; assay: nucleotide-induced oligomerization; type: binding; conditions: with LPS (LPS-bound dimer); putative NOD domain site
[3] = target: the molecule itself; assay: SEC; NLRP6 monomer incubated with LPS (Ra, 10 uM or 20 uM; NLRP6 to component 1:20), Superdex 200 10/300; similar peak shifts with LPS Rc, Rd, Re, Lipid A, FITC-LPS and Pam3CSK4
[4] = target: the molecule itself; assay: negative-stain electron microscopy with 3D reconstruction; NLRP6 with LPS and 1 mM ATP (peak 3 of the gel filtration); particles classed by the number of shrinked links; tetramer map from 8783 particles
[5] = target: the molecule itself; assay: negative-stain electron microscopy; NLRP6 with LPS and ATP increased to 2 mM

Molecule	nucleotide-induced oligomerization (NLRP6 [2])	also measured
Nc1ncnc2c1ncn2[C@@H]1O[C@H](COP(=O)(O)OP(=O)(O)OP(=O)(O)O)[C@@H](O)[C@H]1O [ATP]	–	gel filtration and EM, nucleotide-induced oligomerization (NLRP6 [1]): in the presence of both ATP and LPS, NLRP6 showed additional peak shifts
Nc1ccn([C@@H]2O[C@H](COP(=O)(O)OP(=O)(O)OP(=O)(O)O)[C@@H](O)[C@H]2O)c(=O)n1 [CTP]	demonstrated by ATP, GTP, CTP, TTP, and deoxy-ATP (dATP) treatment	–
Nc1nc2c(ncn2[C@@H]2O[C@H](COP(=O)(O)OP(=O)(O)OP(=O)(O)O)[C@@H](O)[C@H]2O)c(=O)[nH]1 [GTP]	demonstrated by ATP, GTP, CTP, TTP, and deoxy-ATP (dATP) treatment	–
Cc1cn([C@H]2C[C@H](O)[C@@H](COP(=O)(O)OP(=O)(O)OP(=O)(O)O)O2)c(=O)[nH]c1=O [TTP]	demonstrated by ATP, GTP, CTP, TTP, and deoxy-ATP (dATP) treatment	–
Nc1ncnc2c1ncn2[C@H]1C[C@H](O)[C@@H](COP(=O)(O)OP(=O)(O)OP(=O)(O)O)O1 [deoxy-ATP]	demonstrated by ATP, GTP, CTP, TTP, and deoxy-ATP (dATP) treatment	–
Recombinant full-length human NLRP6 (1–892) (natural protein, UniProt P59044 1-892, looked up, NLRP6, human, full length, residues 1-892; Number of copies depends on the condition: monomer in the arginine buffer, dimer with LPS, tetramer, hexamer and longer linear oligomers with LPS and ATP; also called NLRP6 monomer; NLRP6 dimer; not shown: His-tag, N-terminal, cleaved; MBP, N-terminal, cleaved) MDQPEAPCSSTGPRLAVARELLLAALEELSQEQLKRFRHKLRDVGPDGRSIPWGRLERADAVDLAEQLAQFYGPEPALEVARKTLKRADARDVAAQLQERRLQRLGLGSGTLLSVSEYKKKYREHVLQLHARVKERNARSVKITKRFTKLLIAPESAAPEEAMGPAEEPEPGRARRSDTHTFNRLFRRDEEGRRPLTVVLQGPAGIGKTMAAKKILYDWAAGKLYQGQVDFAFFMPCGELLERPGTRSLADLILDQCPDRGAPVPQMLAQPQRLLFILDGADELPALGGPEAAPCTDPFEAASGARVLGGLLSKALLPTALLLVTTRAAAPGRLQGRLCSPQCAEVRGFSDKDKKKYFYKYFRDERRAERAYRFVKENETLFALCFVPFVCWIVCTVLRQQLELGRDLSRTSKTTTSVYLLFITSVLSSAPVADGPRLQGDLRNLCRLAREGVLGRRAQFAEKELEQLELRGSKVQTLFLSKKELPGVLETEVTYQFIDQSFQEFLAALSYLLEDGGVPRTAAGGVGTLLRGDAQPHSHLVLTTRFLFGLLSAERMRDIERHFGCMVSERVKQEALRWVQGQGQGCPGVAPEVTEGAKGLEDTEEPEEEEEGEEPNYPLELLYCLYETQEDAFVRQALCRFPELALQRVRFCRMDVAVLSYCVRCCPAGQALRLISCRLVAAQEKKKKSLGKRLQASLGGGSSSQGTTKQLPASLLHPLFQAMTDPLCHLSSLTLSHCKLPDAVCRDLSEALRAAPALTELGLLHNRLSEAGLRMLSEGLAWPQCRVQTVRVQLPDPQRGLQYLVGMLRQSPALTTLDLSGCQLPAPMVTYLCAVLQHQGCGLQTLSLASVELSEQSLQELQAVKRAKPDLVITHPALDGHPQPPKELISTF	–	stoichiometry N [3]: 2; stoichiometry N [4]: 4 and 6 and 8 and 10; stoichiometry N [5]: 16 and 18
